Measurements published in patent US20070208005A1, “TETRAHYDROBENZAZEPINES AS ANTAGONISTS AND/OR REVERSE AGONISTS OF THE HISTAMINE H3 RECEPTOR” (priority 2004, published 2007).

target: T1, histamine H3 receptor (Homo sapiens, UniProt Q9Y5N1); experiment: Histamine H3 functional antagonist assay ([35S]-GTPγS SPA on membranes of H3 cells); type: biochemical; settings: membrane prepared from cultured H3 cells (CHO K1, human H3); histamine at EC80; averages of a number of experiments; read-out: functional pKi (fpKi), H3 functional antagonist assay (converted)
T1 construct: expressed in transfected cells; host or cells: CHO K1 cells (pSwitch/pGene GeneSwitch system, mifepristone-induced), clone 3H3; membranes
T1 sequence (Q9Y5N1 whole entry): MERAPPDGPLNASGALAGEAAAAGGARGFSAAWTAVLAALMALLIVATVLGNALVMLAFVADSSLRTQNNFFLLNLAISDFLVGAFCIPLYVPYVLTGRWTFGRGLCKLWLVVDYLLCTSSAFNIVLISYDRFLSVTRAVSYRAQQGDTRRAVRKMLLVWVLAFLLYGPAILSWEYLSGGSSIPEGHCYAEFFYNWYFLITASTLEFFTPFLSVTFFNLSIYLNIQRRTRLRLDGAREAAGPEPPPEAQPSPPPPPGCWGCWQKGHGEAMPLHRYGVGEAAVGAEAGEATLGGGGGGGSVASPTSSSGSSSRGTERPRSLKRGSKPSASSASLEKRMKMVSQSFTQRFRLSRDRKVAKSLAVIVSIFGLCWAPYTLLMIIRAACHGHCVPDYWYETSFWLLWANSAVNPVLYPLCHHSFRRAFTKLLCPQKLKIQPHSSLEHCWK
Excerpt: A membrane preparation containing histamine H3 receptors may be prepared in accordance with the following procedures:
(i) Generation of Histamine H3 Cell Line
DNA encoding the human histamine H3 gene (Huvar, A. et al. (1999) Mol. Pharmacol. 55(6), 1101-1107) was cloned into a holding vector, pcDNA3.1 TOPO (InVitrogen) and its cDNA was isolated from this vector by restriction digestion of plasmid DNA with the enzymes BamH1 and Not-1 and ligated into the inducible expression vector pGene (InVitrogen) digested with the same enzymes. The GeneSwitch™ system (a system where in transgene expression is switched off in the absence of an inducer and switched on in the presence of an inducer) was performed as described in U.S. Pat. Nos. 5,364,791; 5,874,534; and 5,935,934. Ligated DNA was transformed into competent DH5α E. coli host bacterial cells and plated onto Luria Broth (LB) agar containing Zeocin™ (an antibiotic which allows the selection of cells expressing the sh ble gene which is present on pGene and pSwitch) at 50 μg ml^−1. Colonies containing the re-ligated plasmid were identified by restriction analysis. DNA for transfection into mammalian cells was prepared from 250 ml cultures of the host bacterium containing the pGeneH3 plasmid and isolated using a DNA preparation kit (Qiagen Midi-Prep) as per manufacturers guidelines (Qiagen). CHO K1 cells previously transfected with the pSwitch regulatory plasmid (InVitrogen) were seeded at 2×10e6 cells per T75 flask in Complete Medium, containing Hams F12 (GIBCOBRL, Life Technologies) medium supplemented with 10% v/v dialysed foetal bovine serum, L-glutamine, and hygromycin (100 μg ml^−1), 24 hours prior to use. Plasmid DNA was transfected into the cells using Lipofectamine plus according to the manufacturers guidelines (InVitrogen). 48 hours post transfection cells were placed into complete medium supplemented with 500 μg ml^−1 Zeocin™.
10-14 days post selection 10 nM Mifepristone (InVitrogen), was added to the culture medium to induce the expression of the receptor. 18 hours post induction cells were detached from the flask using ethylenediamine tetra-acetic acid (EDTA; 1:5000; InVitrogen), following several washes with phosphate buffered saline pH 7.4 and resuspended in Sorting Medium containing Minimum Essential Medium (MEM), without phenol red, and supplemented with Earles salts and 3% Foetal Clone II (Hyclone). Approximately 1×10e7 cells were examined for receptor expression by staining with a rabbit polyclonal antibody, 4a, raised against the N-terminal domain of the histamine H3 receptor, incubated on ice for 60 minutes, followed by two washes in sorting medium. Receptor bound antibody was detected by incubation of the cells for 60 minutes on ice with a goat anti rabbit antibody, conjugated with Alexa 488 fluorescence marker (Molecular Probes). Following two further washes with Sorting Medium, cells were filtered through a 50 μm Filcon™ (BD Biosciences) and then analysed on a FACS Vantage SE Flow Cytometer fitted with an Automatic Cell Deposition Unit. Control cells were non-induced cells treated in a similar manner. Positively stained cells were sorted as single cells into 96-well plates, containing Complete Medium containing 500 μg ml^−1 Zeocin™ and allowed to expand before reanalysis for receptor expression via antibody and ligand binding studies. One clone, 3H3, was selected for membrane preparation.
(ii) Membrane Preparation from Cultured Cells
All steps of the protocol are carried out at 4° C. and with pre-cooled reagents. The cell pellet is resuspended in 10 volumes of homogenisation buffer (50 mM N-2-hydroxyethylpiperazine-N′-2-ethanesulfonic acid (HEPES), 1 mM ethylenediamine tetra-acetic acid (EDTA), pH 7.4 with KOH, supplemented with 10e-6M leupeptin (acetyl-leucyl-leucyl-arginal; Sigma L2884), 25 μg/ml bacitracin (Sigma B0125), 1 mM phenylmethylsulfonyl fluoride (PMSF) and 2×10e-6M pepstain A (Sigma)). […]

| SMILES | Ki |
| --- | --- |
| N#Cc1ccc(Cc2ccc3c(c2)CCN(C2CCC2)CC3)cc1 [Example E1, 4-[(3-Cyclobutyl-2,3,4,5-tetrahydro-1H-3-benzazepin-7-yl)methyl]benzonitrile] | < 0.316 nM |
| O=C1CCCN1c1ccc(Cc2ccc3c(c2)CCN(C2CCC2)CC3)nc1 [Example E5, 1-{6-[(3-cyclobutyl-2,3,4,5-tetrahydro-1H-3-benzazepin-7-yl)methyl]-3-pyridinyl}-2-pyrrolidinone] | < 3.16 nM |
| Cc1noc(-c2ccc(Cc3ccc4c(c3)CCN(C3CCC3)CC4)cc2)n1 [Example E13, 3-Cyclobutyl-7-{[4-(3-methyl-1,2,4-oxadiazol-5-yl)phenyl]methyl}-2,3,4,5-tetrahydro-1H-3-benzazepine] | < 0.316 nM |
| Cc1noc(-c2cnc(Cc3ccc4c(c3)CCN(C3CCC3)CC4)cn2)n1 [Example E15, 3-Cyclobutyl-7-{[5-(3-methyl-1,2,4-oxadiazol-5-yl)-2-pyrazinyl]methyl}-2,3,4,5-tetrahydro-1H-3-benzazepine] | < 3.16 nM |
| Cc1noc(-c2ccc(Cc3ccc4c(c3)CCN(C3CCC3)CC4)nc2)n1 [Example E16, 3-Cyclobutyl-7-{[5-(3-methyl-1,2,4-oxadiazol-5-yl)-2-pyridinyl]methyl}-2,3,4,5-tetrahydro-1H-3-benzazepine] | < 3.16 nM |
| O=C(c1ccc(Cc2ccc3c(c2)CCN(C2CCC2)CC3)cc1)N1CCOCC1 [Example E19, 3-Cyclobutyl-7-{[4-(4-morpholinylcarbonyl)phenyl]methyl}-2,3,4,5-tetrahydro-1H-3-benzazepine] | < 3.16 nM |
| O=C(c1cnc(Cc2ccc3c(c2)CCN(C2CCC2)CC3)cn1)N1CCCC1 [Example E20, 3-Cyclobutyl-7-{[5-(1-pyrrolidinylcarbonyl)-2-pyrazinyl]methyl}-2,3,4,5-tetrahydro-1H-3-benzazepine] | < 3.16 nM |
| CC(C)NC(=O)c1cnc(Cc2ccc3c(c2)CCN(C2CCC2)CC3)cn1 [Example E21, 5-[(3-Cyclobutyl-2,3,4,5-tetrahydro-1H-3-benzazepin-7-yl)methyl]-N-(1-methylethyl)-2-pyrazinecarboxamide] | < 3.16 nM |
| O=C(NCC(F)(F)F)c1cnc(Cc2ccc3c(c2)CCN(C2CCC2)CC3)cn1 [Example E23, 5-[(3-Cyclobutyl-2,3,4,5-tetrahydro-1H-3-benzazepin-7-yl)methyl]-N-(2,2,2-trifluoroethyl)-2-pyrazinecarboxamide] | < 3.16 nM |
| N#CCNC(=O)c1cnc(Cc2ccc3c(c2)CCN(C2CCC2)CC3)cn1 [Example E24, N-(Cyanomethyl)-5-[(3-cyclobutyl-2,3,4,5-tetrahydro-1H-3-benzazepin-7-yl)methyl]-2-pyrazinecarboxamide] | < 3.16 nM |

Next, values leading:

| Ki | SMILES |
| --- | --- |
| < 3.16 nM | N#Cc1ccc(Cc2ccc3c(c2)CCN(C2CCC2)CC3)cn1 [Example E12, 5-[(3-Cyclobutyl-2,3,4,5-tetrahydro-1H-3-benzazepin-7-yl)methyl]-2-pyridinecarbonitrile] |
| < 3.16 nM | Cc1noc(-c2ccc(Cc3ccc4c(c3)CCN(C3CCC3)CC4)cn2)n1 [Example E14, 3-Cyclobutyl-7-{[6-(3-methyl-1,2,4-oxadiazol-5-yl)-3-pyridinyl]methyl}-2,3,4,5-tetrahydro-1H-3-benzazepine] |
| < 3.16 nM | CN(C)C(=O)c1ccc(Cc2ccc3c(c2)CCN(C2CCC2)CC3)cc1 [Example E17, 4-[(3-Cyclobutyl-2,3,4,5-tetrahydro-1H-3-benzazepin-7-yl)methyl]-N,N-dimethylbenzamide] |
| < 3.16 nM | O=C(c1ccc(Cc2ccc3c(c2)CCN(C2CCC2)CC3)cc1)N1CCCCC1 [Example E18, 3-Cyclobutyl-7-{[4-(1-piperidinylcarbonyl)phenyl]methyl}-2,3,4,5-tetrahydro-1H-3-benzazepine] |
| < 3.16 nM | CN(C)C(=O)c1cnc(Cc2ccc3c(c2)CCN(C2CCC2)CC3)cn1 [Example E22, 5-[(3-Cyclobutyl-2,3,4,5-tetrahydro-1H-3-benzazepin-7-yl)methyl]-N,N-dimethyl-2-pyrazinecarboxamide] |
